Several values for one entry are separate records, joined by “and”; a condition that tells them apart may be missing. Equal entries are not always repeated. Where two headings read alike, the source gives them in different places.
Tests used:
HCT-116 xenografts = assay: In vivo anticancer activity, colon tumor xenograft mice (injected with HCT-116); set-up: species or system nude mice; conditions: for average tumor size: treated mice
Description: In vivo efficacy of the compounds of this invention was assessed using colon tumor xenograft mice (injected with HCT-116), as described in Cancer Research 2004, 64, 4621-4628.
HCT-116 cells were grown as subcutaneous tumors in nude mice. When well-established HCT-116 xenografts were palpable with tumor size of ˜100 mm^3, mice were randomly assigned to three groups: a vehicle control group (10 mice), a positive control group (10 mice), and a treatment group (21 mice). Of the treated mice, ten received Compound 209 at a daily dosage of 5 mg/kg and eleven received the same compound at a daily dosage of 15 mg/kg of via IV injection through the tail veins for 5 days/week for 2 consecutive weeks (days 1-5 and 8-12). The positive control mice received VX-680 (a known anti-cancer compound) at a daily dosage of 50 mg/kg, also via IV injection through the tail veins for 5 days/week for 2 consecutive weeks (days 1-5 and 8-12).

HCT-116 cells = assay: HCT-116 cell viability MTS assay; assay type: cell-based; conditions: Homo sapiens
Description: HCT-116 cell viability was examined by the MTS assay (Promega, Madison, Wis., USA). 2000 HCT-116 cells in 100 μL McCoy's 5a medium were seeded in each well of a 96-well plate. After 96-h incubation with a test compound, the cells were incubated with 20 μL of a MTS/PMS mixture (MTS/PMS ratio: 20: 1) for 2 h at 37° C. in a humidified incubator with 5% CO2 to allow viable cells to convert the tetrazolium salt (MTS) into formazan. The amount/concentration of formazan, which indicates the number of live cells, was determined by measuring the absorbance at 490 nm using a PerkinElmer Victor2 plate reader (PerkinElmer, Shelton, Cont., USA).

[1] = molecular target: T1, GST-tAurora A (123-401aa) fusion protein (Homo sapiens, UniProt O14965); assay: Aurora Kinase A luminescent kinase assay; assay type: biochemical; conditions: IC50 (concentration of a test compound at which activity of 50% of Aurora A is inhibited)
T1 construct: GST-tAurora A (123-401aa) fusion protein; made in house; host or cells: Sf9 insect cells (baculovirus, pBacPAK8)
T1 sequence (O14965 123-401): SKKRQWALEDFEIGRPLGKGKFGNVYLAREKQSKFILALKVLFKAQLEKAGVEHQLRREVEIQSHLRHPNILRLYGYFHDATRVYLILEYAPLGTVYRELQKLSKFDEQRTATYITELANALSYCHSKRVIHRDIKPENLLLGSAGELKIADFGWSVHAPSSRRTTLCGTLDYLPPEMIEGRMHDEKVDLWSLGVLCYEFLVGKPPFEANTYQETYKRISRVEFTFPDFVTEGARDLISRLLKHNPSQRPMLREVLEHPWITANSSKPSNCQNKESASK
Description: The Aurora A catalytic domain with an N-terminal GST tag was constructed in pBacPAK8 plasmid and expressed in sf9 cells. […] To concentrate GST-tAurora A, buffer was replaced with Tris buffer (100 mM Tris (pH 7.5), 300 mM NaCl, 1 mM EDTA, 4 mM DTT) using Amicon ultra-15 (MWCO:30K, Millipore) to 2.4 mg/ml. After the addition of equal volume of glycerol and 0.04% Triton X-100, the proteins were stored aliquoted at −80° C.
Briefly, a test compound, enzyme, substrate-tetra(LRRWSLG), DTT and ATP were dissolved in Aur buffer (50 mM Tris-HCl pH 7.4, 10 mM NaCl, 10 mM MgCl2, and 100 μg/ml BSA) individually before the assay. […] 5 μM ATP (5 μl), 1 mM DTT (5 μl) and 0.1 mM tetra(LRRWSLG) peptide substrate (5 μl) were added into the reactions of test compounds and GST-tAurora A. The reactions were incubated at 37° C. for 90 min. 50 μl of Kinase-Glo Plus Reagent (V3771, Promega) was added into the reactions, followed by the incubation at 25° C. for 20 min.

[2] = read-out: IC50 (concentration of a test compound which causes 50% of the cell death), HCT-116, 96-h incubation, MTS
[3] = HCT-116, 96 h, read-out: IC50 (concentration of a test compound which causes 50% of the cell death)
[4] = HCT-116, 96 h, read-out: IC50 (concentration of a test compound which causes 50% of the cell death), HCT-116, 96-h incubation, MTS

Structure (SMILES) | IC50 (HCT-116 cells; [2]) | IC50 [1] | other results
Cc1cc(Nc2cc(N3CCN(C)CC3)nc(Sc3ccc(NC(=O)C4CC4)cc3)n2)n[nH]1 [VX-680, reference compound] |  |  | inhibition of tumor growth (HCT-116 xenografts; 50 mg/kg daily, IV, days 1-5 and 8-12, positive control): inhibition of tumor growth
O=C(Nc1ccccc1)Nc1ccc(CCNc2ncnc3oc(-c4ccccc4)c(CCCCO)c23)cc1 [Compound 251] | 100 to 900 nM | < 1000 nM | 
O=C(Nc1ccccc1)Nc1ccc(CCNc2ncnc3sc4c(c23)CCCC4)cc1 [Compound 42, N-phenyl-N′-4-[2-(5,6,7,8-tetrahydrobenzo[4,5]thieno[2,3-d]pyrimidin-4-ylamino)ethyl]phenylurea] | 100 to 900 nM | 45 to 400 nM and < 1000 nM | 
CN(C)Cc1ccccc1NC(=O)Nc1ccc(CCNc2ncnc3oc(-c4ccccc4)c(Cl)c23)cc1 [Compound 209] | < 100 nM | < 1000 nM and 45 to 400 nM | tumor growth suppression (HCT-116 xenografts; 5 mg/kg daily, IV, days 1-5 and 8-12): suppressed tumor growth insignificantly; inhibition of tumor growth (HCT-116 xenografts; 15 mg/kg daily, IV, days 1-5 and 8-12): inhibition of tumor growth comparable to that of VX-680; average tumor size (HCT-116 xenografts; eleventh day (dose group not stated)): 654 mm^3; average tumor size (HCT-116 xenografts; fourth day (dose group not stated)): 381 mm^3
Cc1c(-c2ccccc2)oc2ncnc(NCCc3ccc(NC(=O)Nc4ccccc4)cc3)c12 [Compound 226] | 100 to 900 nM | < 1000 nM and 45 to 400 nM | 
O=C(Nc1ccc(CCNc2ncnc3oc(-c4ccccc4)c(-c4ccccc4)c23)cc1)Nc1ccc(F)cc1F [Compound 92] | 100 to 900 nM | < 1000 nM | 
CC(=O)Nc1cccc(-c2c(-c3ccccc3)oc3ncnc(NCCc4ccc(NC(=O)Nc5ccccc5)cc4)c23)c1 [Compound 80] | 100 to 900 nM | 45 to 400 nM and < 1000 nM | 
COc1ccc(-c2cc3c(NCCc4ccc(NC(=O)Nc5ccccc5)cc4)ncnc3o2)cc1 [Compound 204] | 100 to 900 nM | < 1000 nM and 45 to 400 nM | 
O=C(NCCN1CCOCC1)Nc1ccc(CCNc2ncnc3oc(-c4ccccc4)c(Cl)c23)cc1 [Compound 218] | 100 to 900 nM | < 1000 nM and 45 to 400 nM | 
O=C(Nc1ccc(CCNc2ncnc3oc(-c4ccccc4)c(-c4ccccc4)c23)cc1)Nc1cccc(F)c1 [Compound 14] | 100 to 900 nM | 45 to 400 nM and < 1000 nM | 
O=C(Nc1ccccc1)Nc1ccc(CCNc2ncnc3oc(-c4cccc(O)c4)cc23)cc1 [Compound 223] | 100 to 900 nM | < 1000 nM and 45 to 400 nM | 
O=C(Nc1ccccc1)Nc1ccc(CCNc2ncnc3sc4c(c23)CCC4)cc1 [Compound 196] | 100 to 900 nM | 45 to 400 nM and < 1000 nM | 
O=C(Nc1ccccc1)Nc1ccc(CCNc2ncnc3oc(-c4ccccc4)c(-c4ccc(CO)o4)c23)cc1 [Compound 250] | 100 to 900 nM | 45 to 400 nM and < 1000 nM | 
O=C(Nc1ccccc1)Nc1ccc(CCNc2ncnc3oc(-c4ccc(OCCN5CCOCC5)cc4)cc23)cc1 [Compound 230] | 100 to 900 nM | 45 to 400 nM and < 1000 nM | 
O=C(Nc1ccccc1)Nc1ccc(CCNc2ncnc3oc(-c4ccc(O)cc4)c(-c4ccc(O)cc4)c23)cc1 [Compound 24] | 100 to 900 nM | < 1000 nM | 
O=C(Nc1ccccc1)Nc1ccc(CCNc2ncnc3oc(Cl)c(-c4ccccc4)c23)cc1 [Compound 213] | 100 to 900 nM | < 1000 nM | 
O=C(NCCCl)Nc1ccc(CCNc2ncnc3oc(-c4ccccc4)cc23)cc1 [Compound 215] |  | < 1000 nM | IC50 (HCT-116 cells; [3]): 100 to 900 nM
O=C(Nc1ccccc1)Nc1ccc(CCNc2ncnc3oc(-c4ccc(OCCCN5CCC(CO)CC5)cc4)cc23)cc1 [Compound 237] | 100 to 900 nM | < 1000 nM and 45 to 400 nM | 
CN(C)Cc1cccc(NC(=O)Nc2ccc(CCNc3ncnc4oc(-c5ccccc5)c(Cl)c34)cc2)c1 [Compound 252] | 100 to 900 nM | < 1000 nM | 
O=C(Nc1ccccc1)Nc1ccc(CCNc2ncnc3oc(-c4ccccc4)c(CO)c23)cc1 [Compound 225] | 100 to 900 nM | < 1000 nM and 45 to 400 nM | 

Structure (SMILES) | IC50 (HCT-116 cells; [2]) | IC50 [1] | other results
O=C(Nc1ccccc1)Nc1ccc(CCNc2ncnc3oc(-c4ccc(OCCCl)cc4)cc23)cc1 [Compound 235] | 100 to 900 nM | < 1000 nM and 45 to 400 nM | 
O=C(Nc1ccc(CCNc2ncnc3oc(-c4ccccc4)c(Cl)c23)cc1)Nc1cccnc1 [Compound 232] | 100 to 900 nM | 45 to 400 nM and < 1000 nM | 
O=C(Nc1ccccc1)Nc1ncc(CCNc2ncnc3oc(-c4ccccc4)c(Cl)c23)s1 [Compound 256] | 100 to 900 nM | 45 to 400 nM and < 1000 nM | 
O=C(Nc1ccc(CCNc2ncnc3oc(-c4ccccc4)c(-c4ccccc4)c23)cc1)Nc1ccccc1F [Compound 96] | 100 to 900 nM | 45 to 400 nM and < 1000 nM | 
COc1ccc(-c2cc3c(NCCc4ccc(NC(=O)Nc5ccccc5CN(C)C)cc4)ncnc3o2)cc1 [Compound 245] | 100 to 900 nM | < 1000 nM | 
CN(C)CCCOc1ccc(-c2cc3c(NCCc4ccc(NC(=O)Nc5ccccc5)cc4)ncnc3o2)cc1 [Compound 247] |  | 45 to 400 nM and < 1000 nM | IC50 (HCT-116 cells; [4]): 100 to 900 nM
O=C(Nc1ccccc1)Nc1ccc(CCNc2ncnc3oc(-c4ccc(OCCCN5CCC(O)CC5)cc4)cc23)cc1 [Compound 240] | 100 to 900 nM | < 1000 nM and 45 to 400 nM | 
COc1ccc(-c2oc3ncnc(NCCc4ccc(NC(=O)Nc5ccccc5)cc4)c3c2-c2ccc(OC)cc2)cc1 [Compound 23] | 100 to 900 nM | 45 to 400 nM and < 1000 nM | 
O=C(Nc1ccncc1)Nc1ccc(CCNc2ncnc3oc(-c4ccccc4)c(-c4ccccc4)c23)cc1 [Compound 148] | 100 to 900 nM | < 1000 nM | 
O=C(Nc1ccccc1)Nc1ncc(CCNc2ncnc3oc(-c4ccccc4)cc23)s1 [Compound 255] | 100 to 900 nM | < 1000 nM | 
O=C(NCCCl)Nc1ccc(CCNc2ncnc3oc(-c4ccccc4)c(Cl)c23)cc1 [Compound 217] |  | < 1000 nM and 45 to 400 nM | IC50 (HCT-116 cells; [3]): 100 to 900 nM
Cc1oc2ncnc(NCCc3cnc(NC(=O)Nc4ccccc4)s3)c2c1C [Compound 254] | 100 to 900 nM | 45 to 400 nM and < 1000 nM | 
COc1ccc(-c2oc3ncnc(NCCc4ccc(NC(=O)Nc5ccccc5)cc4)c3c2Cl)cc1 [Compound 244] | 100 to 900 nM | < 1000 nM and 45 to 400 nM | 
CN(C)Cc1ccccc1NC(=O)Nc1ccc(CCNc2ncnc3oc(-c4ccccc4)c(-c4ccccc4)c23)cc1 [Compound 123] | 100 to 900 nM | 45 to 400 nM and < 1000 nM | 
O=C(Nc1ccccc1)Nc1ccc(CCNc2ncnc3cc(-c4ccccc4)oc23)cc1 [Compound 176] | 100 to 900 nM | < 1000 nM | 
O=C(Nc1ccccc1)Nc1ccc(CCNc2ncnc3oc(-c4ccc(OCCN5CCC(O)CC5)cc4)cc23)cc1 [Compound 239] | 100 to 900 nM | < 1000 nM and 45 to 400 nM | 
CN(C)CCOc1cccc(-c2cc3c(NCCc4ccc(NC(=O)Nc5ccccc5)cc4)ncnc3o2)c1 [Compound 224] |  | < 1000 nM and 45 to 400 nM | IC50 (HCT-116 cells; [4]): 100 to 900 nM
O=C(Nc1ccccc1)Nc1ccc(CCNc2ncnc3oc(-c4ccccc4)cc23)cc1 [Compound 79] | 100 to 900 nM | 45 to 400 nM and < 1000 nM | 
O=C(Nc1ccccc1)Nc1ccc(CCNc2ncnc3oc(-c4ccc(OCCN5CCC(CO)CC5)cc4)cc23)cc1 [Compound 236] | 100 to 900 nM | < 1000 nM and 45 to 400 nM | 
COc1cccc(-c2cc3c(NCCc4ccc(NC(=O)Nc5ccccc5)cc4)ncnc3o2)c1 [Compound 221] | 100 to 900 nM | < 1000 nM and 45 to 400 nM | 

Source: patent US8138194B2, “Fused bicyclic pyrimidine compounds as aurora kinase inhibitors” (National Health Research Institutes, priority 2008, dated 2012)
